Data set [1] is described as follows: Selectivity index, ratio of CC50 for cytotoxicity against human HFF cells infected with HCMV AD-169 virus assessed as reduction in cell viability by cell titer-glo assay to EC50 for antiviral activity against HCMV AD-169 infected in HFF cells assessed as inhibition of virus-induced cytopathic effect measured after 14 days. It counts as toxicity, cell-based. Conditions: read-out: Ratio CC50/EC50.

Data set [2] concerns HepG2 2.2.15. Briefly: Cytotoxicity against human HepG2.2.15 cells assessed as reduction in cell viability. It is filed as functional.
The nature of data set [3]: Cytotoxicity against human HFF cells infected with VZV Ellen virus assessed as reduction in cell viability by cell titer-glo assay. It is filed as toxicity, cell-based.
The nature of data set [4]: Selectivity index, ratio of CC50 for cytotoxicity against human MT4 cells assessed as reduction in cell viability by MTT assay to EC50 for anti-HIV activity against wild type HIV-1 IIIB infected in human MT4 cells assessed as inhibition of HIV-induced cytopathic effect measured after 5 days by MTT assay. It is filed as toxicity, cell-based. Conditions: read-out: Ratio CC50/EC50.

A short description of data set [5]: Cytotoxicity against human MT4 cells assessed as reduction in cell viability by MTT assay. It counts as toxicity, cell-based.
Data set [6] is described as follows: Selectivity index, ratio of CC50 cytotoxicity against human HepG2.2.15 cells assessed as reduction in cell viability to EC50 for antiviral activity against wild type HBV infected in human HepG2 2.2.15 cells assessed as reduction in viral replication by DNA HYB (Vision)/neutral red (Tox) assay. Conditions: read-out: Selectivity Index. It is filed as toxicity, cell-based.

A short description of data set [7]: Selectivity index, ratio of CC50 for cytotoxicity against human HFF cells infected with VZV Ellen virus assessed as reduction in cell viability by cell titer-glo assay to EC50 for antiviral activity against VZV Ellen infected in HFF cells assessed as inhibition of virus-induced cytopathic effect measured after 14 days. It is filed as toxicity, cell-based. Conditions: read-out: Ratio CC50/EC50.

Data set [8] has as its system HepG2 2.2.15. The experiment in a line: Cytotoxicity against human HepG2.2.15 cells assessed as reduction in cell viability by neutral red uptake assay. It is filed as functional.
In a further data set the test system is Human alphaherpesvirus 3. The experiment in a line: Antiviral activity against VZV Ellen infected in HFF cells assessed as reduction in viral replication measured after 14 days. It counts as functional, organism-based. The settings on record: Human alphaherpesvirus 3, Ellen, 336 h.
Data set [9] deals with Human immunodeficiency virus 1. The experiment in a line: Anti-HIV activity against wild type HIV-1 IIIB infected in human MT4 cells assessed as inhibition of HIV-induced cytopathic effect measured after 5 days by MTT assay. It counts as functional, organism-based. The settings on record: Human immunodeficiency virus 1, IIIB, MT4, 120 h.
Another data set has as its system Human betaherpesvirus 5. Briefly: Antiviral activity against HCMV AD-169 infected in HFF cells assessed as reduction in viral replication measured after 14 days. It counts as functional, organism-based. The settings on record: Human betaherpesvirus 5, AD-169, HFF, 336 h.
Data set [10] can be described thus: Selectivity index, ratio of CC50 cytotoxicity against human HepG2.2.15 cells assessed as reduction in cell viability to EC50 for antiviral activity against wild type HBV infected in human HepG2 2.2.15 cells assessed as reduction in viral replication by DNA HYB (RI)/neutral red (Tox) assay. It counts as toxicity, cell-based. Conditions: read-out: Selectivity Index.

Data set [11] in a line: Selectivity index, ratio of CC50 for cytotoxicity against human MT4 cells assessed as reduction in cell viability by MTT assay to EC50 for anti-HIV activity against wild type HIV-2 ROD infected in human MT4 cells assessed as inhibition of HIV-induced cytopathic effect measured after 5 days by MTT assay. It is filed as toxicity, cell-based. Conditions: read-out: Ratio CC50/EC50.

The subject of data set [12] is Hepatitis B virus. The experiment in a line: Antiviral activity against wild type HBV infected in human HepG2 2.2.15 cells assessed as reduction in viral replication pre incubated for 3 days followed by replacement with fresh compounds for another 3 days prior to pronase treatment by RT-qPCR analysis. It counts as functional, organism-based, HepG2.2.15. The settings on record: for EC50: HepG2.2.15; for EC90: HepG2.2.15, 144 h, time 6 day.

Data set [13] deals with Human immunodeficiency virus 2. The experiment in a line: Anti-HIV activity against wild type HIV-2 ROD infected in human MT4 cells assessed as inhibition of HIV-induced cytopathic effect measured after 5 days by MTT assay. The settings on record: Human immunodeficiency virus 2, ROD, MT4, 120 h. It counts as functional, organism-based.
Data set [14] in a line: Cytotoxicity against human HFF cells infected with HCMV AD-169 virus assessed as reduction in cell viability by cell titer-glo assay. It is filed as toxicity, cell-based.
Data set [15] deals with Hepatitis B virus. The experiment in a line: Antiviral activity against wild type HBV infected in human HepG2 2.2.15 cells assessed as reduction in viral replication by DNA HYB (RI)/neutral red (Tox) assay. It counts as functional, organism-based. Conditions: HepG2.2.15.
Data set [16] deals with Hepatitis B virus. The experiment in a line: Antiviral activity against wild type HBV infected in human HepG2 2.2.15 cells assessed as reduction in viral replication by DNA HYB (Vision)/neutral red (Tox) assay. Conditions: HepG2.2.15. It is filed as functional, organism-based.
Data set [17] relates to HepG2 2.2.15. The experiment in a line: Cytotoxicity against human HepG2.2.15 cells assessed as reduction in cell viability incubated for 1 to 4 hrs by MTS uptake assay. It is filed as functional. The settings on record: time 1-4 hrs.

In the case of `C#CC(CO)(Cn1cnc2c(=O)[nH]c(N)nc21)OCP(=O)(O)O` (centres undefined), the selectivity ratio at 336 h in data set [1] is greater than 10; in data set [7], greater than 1. For the same compound, the cytotoxic concentration (CC50) was greater than 100 µM with HepG2 2.2.15 [2]; greater than 150 µM in [3]; greater than 364 µM in [5]; greater than 100 µM with HepG2 2.2.15 [8]; greater than 150 µM in data set [14]. The results for the selectivity ratio at 120 h in [4] and in data set [11] were greater than 97 and greater than 287, respectively. The selectivity ratio in data set [6] was greater than 322; in data set [10] it was greater than 185. Further, the concentration for a half-maximal effect (EC50) in the data set on Human alphaherpesvirus 3 was found to be 116 µM; in [9], 3.73 µM; with Human betaherpesvirus 5 it was 14.4 µM; with Hepatitis B virus [12], 0.37 µM; in data set [13], 1.28 µM; in the data set with Hepatitis B virus [15], 0.54 µM. Besides, the EC50 in the data set with Hepatitis B virus [16] amounted to 0.31 µM. The concentration for an effect of 90% (EC90) with Human alphaherpesvirus 3 (time 14 day) is greater than 150 µM; in the data set with Human betaherpesvirus 5 (time 14 day), greater than 150 µM; with Hepatitis B virus [12] it was 0.83 µM; in the data set with Hepatitis B virus [15] it was 1.8 µM; with Hepatitis B virus [16], 0.8 µM.
With `Nc1ccn([C@@H]2CS[C@H](CO)O2)c(=O)n1` [LAMIVUDINE], the CC50 in the data set with HepG2 2.2.15 [2] was 2120 µM; in data set [5], greater than 87.2 µM; with HepG2 2.2.15 [8], 2120 µM; in the data set on HepG2 2.2.15 [17], greater than 2 µM. For the same compound, the selectivity ratio at 120 h in [4] is greater than 24; in [11] it was greater than 9. Also, the selectivity ratio in data set [6] is 57400; in [10], 16200. For the same compound, the EC50 in [9] was found to be 2.53 µM; with Hepatitis B virus [12], 0.04 µM; in data set [13], 9.9 µM; in the data set on Hepatitis B virus [15], 0.13 µM; with Hepatitis B virus [16] it was 0.04 µM. For the same compound, the EC90 in the data set with Hepatitis B virus [12] was 0.13 µM; in the data set with Hepatitis B virus [15], 0.35 µM; in the data set with Hepatitis B virus [16], 0.12 µM.

For the origin of these results see ChEMBL document CHEMBL5120909, “Reshaping an Acyclic Nucleoside Phosphonate into a Selective Anti-hepatitis B Virus Compound” (J Med Chem, 2022).
